Reference: PubChem BioAssay (NCI)
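Method: 48-hour compound exposure of cells in 96-well plates, five concentrations, linear interpolation of endpoints. GI50 is the concentration that inhibits growth by half. Definition used: TGI = concentration required for complete inhibition of growth.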

How the values were obtained:
Assay in all cases: inhibition of tumour cell growth, NCI panel, 48 h
HCT-15 colon = tested on: HCT-15 colon
RXF 393 renal = tested on: RXF 393 renal
SK-MEL-5 melanoma = tested on: SK-MEL-5 melanoma
COLO 205 colon = tested on: COLO 205 colon
HT29 colon = tested on: HT29 colon
HS 578T breast = tested on: HS 578T breast
SN12C renal = tested on: SN12C renal
EKVX NSCLC = tested on: EKVX NSCLC
MDA-MB-468 breast = tested on: MDA-MB-468 breast
SK-MEL-2 melanoma = tested on: SK-MEL-2 melanoma
OVCAR-3 ovarian = tested on: OVCAR-3 ovarian
UACC-257 melanoma = tested on: UACC-257 melanoma
NCI/ADR-RES ovarian = tested on: NCI/ADR-RES ovarian
SW-620 colon = tested on: SW-620 colon
MCF7 breast = tested on: MCF7 breast
SNB-19 CNS = tested on: SNB-19 CNS
SR leukemia = tested on: SR leukemia
MDA-MB-435 = tested on: MDA-MB-435
SK-MEL-28 melanoma = tested on: SK-MEL-28 melanoma
MDA-MB-231 breast = tested on: MDA-MB-231 breast
MALME-3M melanoma = tested on: MALME-3M melanoma
T-47D breast = tested on: T-47D breast
BT-549 breast = tested on: BT-549 breast
LOX IMVI melanoma = tested on: LOX IMVI melanoma
786-0 renal = tested on: 786-0 renal
NCI-H522 lung = tested on: NCI-H522 lung
HCT-116 colon = tested on: HCT-116 colon
SK-OV-3 ovarian = tested on: SK-OV-3 ovarian
HOP-62 NSCLC = tested on: HOP-62 NSCLC
MOLT-4 leukemia = tested on: MOLT-4 leukemia
KM12 colon = tested on: KM12 colon
HOP-92 NSCLC = tested on: HOP-92 NSCLC
IGROV1 ovarian = tested on: IGROV1 ovarian
A549 NSCLC = tested on: A549 NSCLC
M14 melanoma = tested on: M14 melanoma
HCC-2998 colon = tested on: HCC-2998 colon
NCI-H226 lung = tested on: NCI-H226 lung
NCI-H23 lung = tested on: NCI-H23 lung
PC-3 prostate = tested on: PC-3 prostate
A498 renal = tested on: A498 renal
ACHN renal = tested on: ACHN renal
HL-60(TB) leukemia = tested on: HL-60(TB) leukemia
OVCAR-5 ovarian = tested on: OVCAR-5 ovarian
CAKI-1 renal = tested on: CAKI-1 renal
OVCAR-4 ovarian = tested on: OVCAR-4 ovarian
SF-539 CNS = tested on: SF-539 CNS
U251 CNS = tested on: U251 CNS
UACC-62 melanoma = tested on: UACC-62 melanoma
SF-295 CNS = tested on: SF-295 CNS
UO-31 renal = tested on: UO-31 renal
OVCAR-8 ovarian = tested on: OVCAR-8 ovarian
SF-268 CNS = tested on: SF-268 CNS
K-562 leukemia = tested on: K-562 leukemia
DU-145 prostate = tested on: DU-145 prostate
TK-10 renal = tested on: TK-10 renal
NCI-H460 lung = tested on: NCI-H460 lung
CCRF-CEM leukemia = tested on: CCRF-CEM leukemia
RPMI-8226 leukemia = tested on: RPMI-8226 leukemia

COc1cccc(/C=C/C(=O)c2ccc(OC)c(S(N)(=O)=O)c2)c1
GI50 (HCT-15 colon): 1.27 µM | TGI (HCT-15 colon): 3.34 µM | GI50 (RXF 393 renal): 3.39 µM | TGI (RXF 393 renal): 15.1 µM | GI50 (SK-MEL-5 melanoma): 5.23 µM | TGI (SK-MEL-5 melanoma): 18 µM | GI50 (COLO 205 colon): 2.93 µM | TGI (COLO 205 colon): 11 µM | GI50 (HT29 colon): 1.91 µM | TGI (HT29 colon): 4.05 µM | GI50 (HS 578T breast): 15.5 µM | TGI (HS 578T breast): 50.6 µM | GI50 (SN12C renal): 2.74 µM | TGI (SN12C renal): 10.9 µM | GI50 (EKVX NSCLC): 8.05 µM | TGI (EKVX NSCLC): 20.9 µM | GI50 (MDA-MB-468 breast): 1.99 µM | TGI (MDA-MB-468 breast): 7.17 µM | GI50 (SK-MEL-2 melanoma): 14 µM | TGI (SK-MEL-2 melanoma): 27.3 µM | GI50 (OVCAR-3 ovarian): 2.9 µM | TGI (OVCAR-3 ovarian): 10.8 µM | GI50 (UACC-257 melanoma): 10.2 µM | TGI (UACC-257 melanoma): 22.5 µM | GI50 (NCI/ADR-RES ovarian): 2.83 µM | TGI (NCI/ADR-RES ovarian): 9.24 µM | GI50 (SW-620 colon): 3.16 µM | TGI (SW-620 colon): 12 µM | GI50 (MCF7 breast): 2.87 µM | TGI (MCF7 breast): 12.5 µM | GI50 (SNB-19 CNS): 4.82 µM | TGI (SNB-19 CNS): 17.2 µM | GI50 (SR leukemia): 1.26 µM | TGI (SR leukemia): 4.09 µM | GI50 (MDA-MB-435): 4.66 µM | TGI (MDA-MB-435): 16.5 µM | GI50 (SK-MEL-28 melanoma): 9.04 µM | TGI (SK-MEL-28 melanoma): 21.1 µM | GI50 (MDA-MB-231 breast): 3.8 µM | TGI (MDA-MB-231 breast): 13.6 µM | GI50 (MALME-3M melanoma): 12.4 µM | TGI (MALME-3M melanoma): 25.1 µM | GI50 (T-47D breast): 2.97 µM | TGI (T-47D breast): 14.2 µM | GI50 (BT-549 breast): 2.52 µM | TGI (BT-549 breast): 8.85 µM | GI50 (LOX IMVI melanoma): 1.64 µM | TGI (LOX IMVI melanoma): 3.47 µM | GI50 (786-0 renal): 2.9 µM | TGI (786-0 renal): 11 µM | GI50 (NCI-H522 lung): 2.48 µM | TGI (NCI-H522 lung): 8.39 µM | GI50 (HCT-116 colon): 1.59 µM | TGI (HCT-116 colon): 3.31 µM | GI50 (SK-OV-3 ovarian): 10.1 µM | TGI (SK-OV-3 ovarian): 21.9 µM | GI50 (HOP-62 NSCLC): 2.7 µM | TGI (HOP-62 NSCLC): 10.2 µM | GI50 (MOLT-4 leukemia): 2.12 µM | TGI (MOLT-4 leukemia): 5.16 µM | GI50 (KM12 colon): 2.12 µM | TGI (KM12 colon): 5.11 µM | GI50 (HOP-92 NSCLC): 6.37 µM | TGI (HOP-92 NSCLC): 20.2 µM | GI50 (IGROV1 ovarian): 2.98 µM | TGI (IGROV1 ovarian): 12.5 µM | GI50 (A549 NSCLC): 2.64 µM | TGI (A549 NSCLC): 11.5 µM | GI50 (M14 melanoma): 4.42 µM | TGI (M14 melanoma): 17.7 µM | GI50 (HCC-2998 colon): 2.88 µM | TGI (HCC-2998 colon): 12.1 µM | GI50 (NCI-H226 lung): 2.72 µM | TGI (NCI-H226 lung): 11.1 µM | GI50 (NCI-H23 lung): 4.66 µM | TGI (NCI-H23 lung): 16.9 µM | GI50 (PC-3 prostate): 5.25 µM | TGI (PC-3 prostate): 18.4 µM | GI50 (A498 renal): 14.3 µM | TGI (A498 renal): 28 µM | GI50 (ACHN renal): 1.85 µM | TGI (ACHN renal): 3.7 µM | GI50 (HL-60(TB) leukemia): 1.88 µM | TGI (HL-60(TB) leukemia): 5.18 µM | GI50 (OVCAR-5 ovarian): 2.61 µM | TGI (OVCAR-5 ovarian): 10.8 µM | GI50 (CAKI-1 renal): 4.16 µM | TGI (CAKI-1 renal): 16.1 µM | GI50 (OVCAR-4 ovarian): 4.87 µM | TGI (OVCAR-4 ovarian): 20.1 µM | GI50 (SF-539 CNS): 1.96 µM | TGI (SF-539 CNS): 4.56 µM | GI50 (U251 CNS): 2.5 µM | TGI (U251 CNS): 9.83 µM | GI50 (UACC-62 melanoma): 4.16 µM | TGI (UACC-62 melanoma): 16.9 µM | GI50 (SF-295 CNS): 2.9 µM | TGI (SF-295 CNS): 12.6 µM | GI50 (UO-31 renal): 2.03 µM | TGI (UO-31 renal): 9.93 µM | GI50 (OVCAR-8 ovarian): 2.96 µM | TGI (OVCAR-8 ovarian): 12 µM | GI50 (SF-268 CNS): 4.85 µM | TGI (SF-268 CNS): 18.9 µM | GI50 (K-562 leukemia): 2.12 µM | TGI (K-562 leukemia): 6.4 µM | GI50 (DU-145 prostate): 5.73 µM | TGI (DU-145 prostate): 18.1 µM | GI50 (TK-10 renal): 2.81 µM | TGI (TK-10 renal): 13.1 µM | GI50 (NCI-H460 lung): 3.45 µM | TGI (NCI-H460 lung): 13.8 µM | GI50 (CCRF-CEM leukemia): 2.51 µM | TGI (CCRF-CEM leukemia): 6.23 µM | GI50 (RPMI-8226 leukemia): 2.54 µM | TGI (RPMI-8226 leukemia): 7.24 µM
